Results from patent US20110009435A1, “HETERO BICYCLIC CARBOXAMIDE DERIVATIVES AND THEIR PHARMACEUTICAL USE AND COMPOSITIONS” (Pfizer, Inc., priority 2007, published 2011).

What was measured:
Assay type in all cases: biochemical
Human recombinant MMP-15 = target: T1, Human recombinant MMP-15 (Homo sapiens, UniProt P51511); experiment: In vitro MMP inhibition assay, MMP-15 catalytic domain (fluorogenic peptide substrate cleavage, Ki); details: human MMP-15, catalytic domain (CD); read-out: hMMP Ki 15/CD
T1 construct: The catalytic domain of MMP-12 and MMP-15 enzymes were purchased commercially for these assays; purchased
T1 sequence (P51511 132-304 limits assumed): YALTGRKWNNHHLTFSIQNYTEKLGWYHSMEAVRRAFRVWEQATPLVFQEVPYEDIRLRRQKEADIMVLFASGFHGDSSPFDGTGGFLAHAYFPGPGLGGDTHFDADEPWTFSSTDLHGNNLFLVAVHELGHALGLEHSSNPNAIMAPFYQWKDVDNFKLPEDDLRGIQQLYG
Method: (§1) Matrix Metalloproteinase inhibitor compounds were analyzed in in vitro MMP Inhibition assays to determine their ability to inhibit the MMP cleavage of peptide substrates. Inhibition constants (Ki) were calculated from the assayed compound-MMP interactions.
(§2) Human recombinant MMP-1, MMP-2, MMP-3, MMP-7, MMP-9, MMP-12, MMP-13, MMP-14 and MMP-15 were used in these assays. The enzymes are prepared following known laboratory procedures. Protocols for the preparation and use of these enzymes are available in the scientific literature. See, e.g., Enzyme Nomenclature (Academic Press, San Diego, Calif., 1992) and the citations therein. See also Frije et al., J. Biol. Chem., 26(24), 16766-73 (1994).
(§3) The catalytic domain of MMP-12 and MMP-15 enzymes were purchased commercially for these assays.
(§4) The fluorogenic, methoxycoumarin-containing polypeptide substrate MCA-ArgProLeuGlyLeuDpaAlaArgGluArgNH2 was used as the MMP substrate in the MMP inhibition assays for human recombinant MMP-1, MMP-2, MMP-7, MMP-9, MMP-12, MMP-13, MMP-14 and MMP-15. Here, “MCA” is 7-methoxycoumarin-4-yl acetyl and “Dpa” is 3-(2,4-dinitrophenyl)-L-2,3-di-aminopropionyl group. In the absence of MMP inhibitory activity, the substrate is cleaved at the Gly-Leu peptide bond. The cleavage separates the highly fluorogenic peptide from the 2,4-dinitrophenyl quencher, resulting in an increase of fluorescent intensity.
(§5) For the human MMP-1, MMP-2, MMP-7, MMP-9, MMP-12, MMP-13, MMP-14 and MMP-15 assays, dilutions of the inhibitors (or salts thereof) were prepared in 100% dimethyl sulfoxide (DMSO). The stock solutions were diluted in Buffer A (100 mM Tris-HCl, 100 mM NaCl, 10 mM CaCl2, 0.005% polyoxyethylene 23 lauryl ether, pH 7.5) to obtain solutions with different compound concentrations, i.e., assay solutions with different concentrations of the assayed MMP inhibitory compound in 1% DMSO. The experiment controls contained the same amount of Buffer A/DMSO as the assayed sample, but contained no inhibitor.
(§6) To determine Ki, the inhibitor samples are incubated at room temperature for 1 hr in the presence of enzyme and then 4 μM of appropriate MMP substrate was added, and samples were analyzed on a Tecan SpectraFlour Plus plate reader. The excitation wavelength is 330 nm, and the emission (fluorescence) wavelength is 420 nm. In the absence of MMP inhibitory activity, the substrate is cleaved at the Gly-Leu bond resulting in an increase of relative fluorescence. Inhibition is observed as a reduced rate of increase in relative fluorescence.
(§7) The inhibitors are analyzed using a single low enzyme concentration with a single substrate concentration fixed at or below the Km. This protocol is a modification of method by Knight et al., FEBS Lett., 296(3), 263-266 (1992). Apparent inhibitory constants are determined by non-linear regression of reaction velocity as a function of inhibitor and enzyme concentration using Morrison's equation, as described by Kuzmic, Anal. Biochem. 286, 45-50 (2000). Modifications were made in the non-linear regression method to allow a common control reaction rate and effective enzyme concentration to be shared between all dose-response relationships on a given assay plate. Since the substrate concentration was chosen to be at or below the Km, the apparent Ki's from this analysis were reported as Ki's without correction for the influence of substrate.

Human recombinant MMP-13 = target: T2, Human recombinant MMP-13 (Homo sapiens, UniProt P45452); experiment: In vitro MMP inhibition assay, MMP-13 (fluorogenic peptide substrate cleavage, Ki); details: human MMP-13, full length (FL); read-out: hMMP Ki 13/FL
T2 construct: made in house; host or cells: baculovirus expression (insect cells)
Method in brief: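 Baculovirus-expressed proenzyme, APMA- or trypsin-activated, preincubated 1 h at room temperature with inhibitor in pH 7.5 Tris/NaCl/CaCl2 buffer, 1% DMSO. Then 4 μM MCA/Dpa quenched peptide added; fluorescence rate read at 330/420 nm. Ki from Morrison-equation regression, substrate at or below Km, uncorrected.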

Human recombinant MMP-9 = target: T3, Human recombinant MMP-9 (Homo sapiens, UniProt P14780); experiment: In vitro MMP inhibition assay, MMP-9 (fluorogenic peptide substrate cleavage, Ki); details: human MMP-9, full length (FL); read-out: hMMP Ki 09/FL
T3 construct: made in house; host or cells: MMP-9-transfected HT1080 cells
T3 sequence (P14780 107-707 limits assumed): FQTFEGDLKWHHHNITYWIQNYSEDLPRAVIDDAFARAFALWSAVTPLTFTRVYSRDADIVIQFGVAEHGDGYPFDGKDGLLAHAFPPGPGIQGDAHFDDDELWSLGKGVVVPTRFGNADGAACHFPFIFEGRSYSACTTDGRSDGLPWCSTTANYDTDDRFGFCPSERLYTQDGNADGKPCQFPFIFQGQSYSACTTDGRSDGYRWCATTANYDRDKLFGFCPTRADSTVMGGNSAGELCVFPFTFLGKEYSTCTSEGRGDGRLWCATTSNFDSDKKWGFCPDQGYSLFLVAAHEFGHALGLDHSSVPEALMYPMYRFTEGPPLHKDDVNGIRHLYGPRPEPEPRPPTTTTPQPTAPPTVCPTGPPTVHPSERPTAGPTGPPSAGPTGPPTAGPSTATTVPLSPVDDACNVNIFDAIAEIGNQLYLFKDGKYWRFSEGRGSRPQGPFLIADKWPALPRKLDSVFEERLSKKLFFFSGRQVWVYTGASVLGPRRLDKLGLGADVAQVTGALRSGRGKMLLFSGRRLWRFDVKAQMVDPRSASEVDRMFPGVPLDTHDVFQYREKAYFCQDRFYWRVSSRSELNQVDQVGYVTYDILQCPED
Method: as §1, §2
The MMP-1 proenzyme may be purified from spent media of MMP-1-transfected HT-1080 cells and the protein purified on a zinc chelating column. The MMP-2 proenzyme may be purified by gelatin Sepharose chromatography from MMP-2-transfected p2AHT2 cells. […]
The inhibitors are analyzed using a single low enzyme concentration with a single substrate concentration fixed at or below the Km. […] Apparent inhibitory constants are determined by non-linear regression of reaction velocity as a function of inhibitor and enzyme concentration using Morrison's equation, as described by Kuzmic, Anal. Biochem. 286, 45-50 (2000). […]

Human recombinant MMP-12 = target: T4, Human recombinant MMP-12 (Homo sapiens, UniProt P39900); experiment: In vitro MMP inhibition assay, MMP-12 catalytic domain (fluorogenic peptide substrate cleavage, Ki); details: human MMP-12, catalytic domain (CD); read-out: hMMP Ki 12/CD
T4 construct: The catalytic domain of MMP-12 and MMP-15 enzymes were purchased commercially for these assays; purchased
T4 sequence (P39900 106-263 limits assumed): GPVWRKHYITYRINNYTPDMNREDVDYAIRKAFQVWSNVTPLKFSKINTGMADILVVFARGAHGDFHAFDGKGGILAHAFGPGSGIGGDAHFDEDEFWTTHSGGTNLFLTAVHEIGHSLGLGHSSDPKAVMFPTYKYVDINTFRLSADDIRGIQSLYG
Method: as §1, §2, §3, §4, §5, §6, §7

Human recombinant MMP-14 = target: T5, Human recombinant MMP-14 (Homo sapiens, UniProt P50281); experiment: In vitro MMP inhibition assay, MMP-14 catalytic domain (fluorogenic peptide substrate cleavage, Ki); details: human MMP-14, catalytic domain (CD); read-out: hMMP Ki 14/CD
T5 construct: The MMP-14 cDNA may be used to express the catalytic domain enzyme in E. coli inclusion bodies; made in house
Method: as §1, §2
The MMP-14 cDNA may be used to express the catalytic domain enzyme in E. coli inclusion bodies. Then the enzyme is solubilized in urea, purified on a preparative […] reverse phase HPLC column, and refolded in the presence of zinc acetate and purified for use.
as §4, §5, §6
as §7, with “Since the substrate concentration was chosen to be at or below the Km, the apparent Ki's from this analysis were reported as Ki's without correction for the influence of substrate.” left out

Ki (Human recombinant MMP-15): > 10 µM | Ki (Human recombinant MMP-13): 0.000118 µM | Ki (Human recombinant MMP-9): > 10 µM | Ki (Human recombinant MMP-12): 6.53 µM | Ki (Human recombinant MMP-14): > 10 µM
Compound: COc1cccc(CNC(=O)c2nc3ccc(F)c(OCCC4CCN(C(=O)CO)CC4)c3c(=O)[nH]2)c1 [Example 34, 6-fluoro-5-[2-(1-glycoloylpiperidin-4-yl)ethoxy]-N-(3-methoxybenzyl)-4-oxo-3,4-dihydroquinazoline-2-carboxamide]
